Assay results from patent publication US20210369853A1, “TARGETED PROTEASE DEGRADATION PLATFORM” (EUBULUS BIOTHERAPEUTICS INC., priority 2018, published 2021).

Legend:
[1] = test system: Human Colon Cancer HCT-116; assay: Cell proliferation experiment (Alarm blue, 72 h, EC50); format: cell-based; conditions: Homo sapiens, HCT-116; HCT116 cells
Outline: (§1)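 Single-cell suspensions from log-phase cultures are plated, compound in complete medium is added at 5-fold dilution steps (two replicates each), and cells grow for 72 h. Viability is then measured as Alamar blue fluorescence, giving EC50 by sigmoidal fitting.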

[2] = test system: Human Monocytic Leukemia MV4-11; assay: as above; format: cell-based
Outline: as §1

[3] = Homo sapiens, MV4-11, MV4;11 cells

| EC50 [1] | EC50 [2, 3] | EC50 ([2]; MV4;11 cells) | Structure (SMILES) |
| --- | --- | --- | --- |
| – | 0.1 to 1 µM | – | O=C1CCC(N2Cc3c(NC(=O)COCCNCCOCCOCCOCCNC(=O)[C@]4(Cc5cccc(Nc6nccs6)n5)CC[C@@H](Oc5cccc(Cl)c5F)CC4)cccc3C2=O)C(=O)N1 (some centres unmarked) [UB-180793] |
| – | > 1 µM | – | O=C1CCC(N2Cc3c(NC(=O)COCCOCCOCCNCCNC(=O)c4ccc(Nc5ncc6c(n5)-c5ccc(Cl)cc5C(c5c(F)cccc5F)=NC6)cc4)cccc3C2=O)C(=O)N1 (centres unmarked) [UB-180794] |
| – | 0.1 to 1 µM | – | O=C1CCC(N2Cc3c(NC(=O)COCCOCCOCCNCCNC(=O)[C@]4(Cc5cccc(Nc6nccs6)n5)CC[C@@H](Oc5cccc(Cl)c5F)CC4)cccc3C2=O)C(=O)N1 (some centres unmarked) [UB-180795] |
| – | > 1 µM | – | O=C1CCC(N2Cc3c(NC(=O)CCOCCOCCOCCNCCNC(=O)c4ccc(Nc5ncc6c(n5)-c5ccc(Cl)cc5C(c5c(F)cccc5F)=NC6)cc4)cccc3C2=O)C(=O)N1 (centres unmarked) [UB-180796] |
| – | > 1 µM | – | O=C1CCC(N2Cc3c(NC(=O)CCOCCOCCOCCNCCNC(=O)[C@]4(Cc5cccc(Nc6nccs6)n5)CC[C@@H](Oc5cccc(Cl)c5F)CC4)cccc3C2=O)C(=O)N1 (some centres unmarked) [UB-180797] |
| – | 0.1 to 1 µM | – | O=C1CCC(N2Cc3c(NC(=O)COCCOCCOCCNCCOCCNC(=O)c4ccc(Nc5ncc6c(n5)-c5ccc(Cl)cc5C(c5c(F)cccc5F)=NC6)cc4)cccc3C2=O)C(=O)N1 (centres unmarked) [UB-180798] |
| – | 0.1 to 1 µM | – | O=C1CCC(N2Cc3c(NC(=O)COCCOCCOCCNCCOCCNC(=O)[C@]4(Cc5cccc(Nc6nccs6)n5)CC[C@@H](Oc5cccc(Cl)c5F)CC4)cccc3C2=O)C(=O)N1 (some centres unmarked) [UB-180799] |
| – | 0.1 to 1 µM | – | O=C1CCC(N2Cc3c(NC(=O)CCOCCOCCOCCNCCOCCNC(=O)c4ccc(Nc5ncc6c(n5)-c5ccc(Cl)cc5C(c5c(F)cccc5F)=NC6)cc4)cccc3C2=O)C(=O)N1 (centres unmarked) [UB-180803] |
| – | 0.1 to 1 µM | – | O=C1CCC(N2Cc3c(NC(=O)CCNCCOCCOCCOCCOCCNC(=O)c4ccc(Nc5ncc6c(n5)-c5ccc(Cl)cc5C(c5c(F)cccc5F)=NC6)cc4)cccc3C2=O)C(=O)N1 (centres unmarked) [UB-180807] |
| – | 0.1 to 1 µM | – | O=C1CCC(N2Cc3c(NC(=O)CCNCCOCCOCCOCCOCCNC(=O)[C@]4(Cc5cccc(Nc6nccs6)n5)CC[C@@H](Oc5cccc(Cl)c5F)CC4)cccc3C2=O)C(=O)N1 (some centres unmarked) [UB-180808] |
| – | 0.1 to 1 µM | – | O=C1CCC(N2Cc3c(NC(=O)CNCCOCCOCCNC(=O)c4ccc(Nc5ncc6c(n5)-c5ccc(Cl)cc5C(c5c(F)cccc5F)=NC6)cc4)cccc3C2=O)C(=O)N1 (centres unmarked) [UB-180809] |
| – | 0.1 to 1 µM | – | O=C1CCC(N2Cc3c(NC(=O)CNCCOCCN4CCN(CCNC(=O)c5ccc(Nc6ncc7c(n6)-c6ccc(Cl)cc6C(c6c(F)cccc6F)=NC7)cc5)CC4)cccc3C2=O)C(=O)N1 (centres unmarked) [UB-180811] |
| – | – | 0.1 to 1 µM | O=C1CCC(N2Cc3c(NC(=O)CNCCOCCN4CCN(CCNC(=O)[C@]5(Cc6cccc(Nc7nccs7)n6)CC[C@@H](Oc6cccc(Cl)c6F)CC5)CC4)cccc3C2=O)C(=O)N1 (some centres unmarked) [UB-180812] |
| – | 0.01 to 0.1 µM | – | CC[C@@H]1C(=O)N(C)c2cnc(Nc3ccc(C(=O)NCCOCCOCCOCCOCCNCCC(=O)Nc4cccc5c4CN(C4CCC(=O)NC4=O)C5=O)cc3OC)nc2N1C1CCCC1 (some centres unmarked) [UB-180813] |
| – | 0.01 to 0.1 µM | – | CC[C@@H]1C(=O)N(C)c2cnc(Nc3ccc(C(=O)NCCOCCOCCNCC(=O)Nc4cccc5c4CN(C4CCC(=O)NC4=O)C5=O)cc3OC)nc2N1C1CCCC1 (some centres unmarked) [UB-180814] |
| – | 0.01 to 0.1 µM | – | CC[C@@H]1C(=O)N(C)c2cnc(Nc3ccc(C(=O)NCCNCCOCCOCCOCC(=O)Nc4cccc5c4CN(C4CCC(=O)NC4=O)C5=O)cc3OC)nc2N1C1CCCC1 (some centres unmarked) [UB-180815] |
| – | 0.01 to 0.1 µM | – | CC[C@@H]1C(=O)N(C)c2cnc(Nc3ccc(C(=O)NCCNCCOCCOCCOCCC(=O)Nc4cccc5c4CN(C4CCC(=O)NC4=O)C5=O)cc3OC)nc2N1C1CCCC1 (some centres unmarked) [UB-180820] |
| – | > 1 µM | – | O=C1CCC(N2Cc3c(NC(=O)CCNCCOC4CCN(CCOCCNC(=O)c5ccc(Nc6ncc7c(n6)-c6ccc(Cl)cc6C(c6c(F)cccc6F)=NC7)cc5)CC4)cccc3C2=O)C(=O)N1 (centres unmarked) [UB-180821] |
| – | > 1 µM | – | O=C1CCC(N2Cc3c(NC(=O)CCNCCn4cc(COCCNC(=O)c5ccc(Nc6ncc7c(n6)-c6ccc(Cl)cc6C(c6c(F)cccc6F)=NC7)cc5)nn4)cccc3C2=O)C(=O)N1 (centres unmarked) [UB-180822] |
| – | 0.01 to 0.1 µM | – | CC[C@@H]1C(=O)N(C)c2cnc(Nc3ccc(C(=O)NC4CCN(CCOCCN(CC(=O)Nc5cccc6c5CN(C5CCC(=O)NC5=O)C6=O)C(=O)OC)CC4)cc3OC)nc2N1C1CCCC1 (some centres unmarked) [UB-180833] |
| – | 0.01 to 0.1 µM | – | CC[C@@H]1C(=O)N(C)c2cnc(Nc3ccc(C(=O)NC4CCN(CCOCCN(C=O)CC(=O)Nc5cccc6c5CN(C5CCC(=O)NC5=O)C6=O)CC4)cc3OC)nc2N1C1CCCC1 (some centres unmarked) [UB-180834] |
| – | 0.01 to 0.1 µM | – | CC[C@@H]1C(=O)N(C)c2cnc(Nc3ccc(C(=O)NC4CCN(CCOCCN(CC(=O)Nc5cccc6c5CN(C5CCC(=O)NC5=O)C6=O)C(C)=O)CC4)cc3OC)nc2N1C1CCCC1 (some centres unmarked) [UB-180835] |
| – | 0.1 to 1 µM | – | CN(CCOCCOCCOCCNC(=O)[C@]1(Cc2cccc(Nc3nccs3)n2)CC[C@@H](Oc2cccc(Cl)c2F)CC1)CC(=O)Nc1cccc2c1CN(C1CCC(=O)NC1=O)C2=O (some centres unmarked) [UB-180836] |
| – | 0.01 to 0.1 µM | – | CC[C@@H]1C(=O)N(C)c2cnc(Nc3ccc(C(=O)NC4CCN(CCOCCN(CC(=O)Nc5cccc6c5CN(C5CCC(=O)NC5=O)C6=O)C(N)=O)CC4)cc3OC)nc2N1C1CCCC1 (some centres unmarked) [UB-180840] |

Second part, the molecule before the results:

| Structure (SMILES) | EC50 [1] | EC50 [2, 3] | EC50 ([2]; MV4;11 cells) |
| --- | --- | --- | --- |
| O=C1CCC(N2Cc3c(NC(=O)CCCNC(=O)c4ccc(Nc5ncc6c(n5)-c5ccc(Cl)cc5C(c5c(F)cccc5F)=NC6)cc4)cccc3C2=O)C(=O)N1 (centres unmarked) [UB-180501] | 0.1 to 1 µM | > 1 µM | – |
| O=C1CCC(N2Cc3c(NC(=O)COCCCNC(=O)c4ccc(Nc5ncc6c(n5)-c5ccc(Cl)cc5C(c5c(F)cccc5F)=NC6)cc4)cccc3C2=O)C(=O)N1 (centres unmarked) [UB-180502] | 0.1 to 1 µM | 0.01 to 0.1 µM | – |
| O=C1CCC(N2Cc3c(NC(=O)COCCCCNC(=O)c4ccc(Nc5ncc6c(n5)-c5ccc(Cl)cc5C(c5c(F)cccc5F)=NC6)cc4)cccc3C2=O)C(=O)N1 (centres unmarked) [UB-180503] | 0.1 to 1 µM | 0.1 to 1 µM | – |
| O=C1CCC(N2Cc3c(NC(=O)CCOCCOCCNC(=O)c4ccc(Nc5ncc6c(n5)-c5ccc(Cl)cc5C(c5c(F)cccc5F)=NC6)cc4)cccc3C2=O)C(=O)N1 (centres unmarked) [UB-180504] | 0.1 to 1 µM | 0.01 to 0.1 µM | – |
| O=C1CCC(N2Cc3c(NC(=O)COCCNC(=O)c4ccc(Nc5ncc6c(n5)-c5ccc(Cl)cc5C(c5c(F)cccc5F)=NC6)cc4)cccc3C2=O)C(=O)N1 (centres unmarked) [UB-180509] | > 1 µM | > 1 µM | – |
| O=C1CCC(N2Cc3c(NC(=O)COCCOCCOCCNC(=O)c4ccc(Nc5ncc6c(n5)-c5ccc(Cl)cc5C(c5c(F)cccc5F)=NC6)cc4)cccc3C2=O)C(=O)N1 (centres unmarked) [UB-180520] | > 1 µM | 0.01 to 0.1 µM | – |
| O=C1CCC(N2Cc3c(NC(=O)CCOCCOCCOCCOCCNC(=O)c4ccc(Nc5ncc6c(n5)-c5ccc(Cl)cc5C(c5c(F)cccc5F)=NC6)cc4)cccc3C2=O)C(=O)N1 (centres unmarked) [UB-180530] | > 1 µM | 0.01 to 0.1 µM | – |
| O=C1CCC(N2Cc3c(NC(=O)COCCOCCOCCOCCNC(=O)c4ccc(Nc5ncc6c(n5)-c5ccc(Cl)cc5C(c5c(F)cccc5F)=NC6)cc4)cccc3C2=O)C(=O)N1 (centres unmarked) [UB-180534] | > 1 µM | 0.01 to 0.1 µM | – |
| O=C1CCC(N2Cc3c(NC(=O)COCCOCCNC(=O)c4ccc(Nc5ncc6c(n5)-c5ccc(Cl)cc5C(c5c(F)cccc5F)=NC6)cc4)cccc3C2=O)C(=O)N1 (centres unmarked) [UB-180559] | > 1 µM | 0.1 to 1 µM | – |
| O=C1CCC(N2Cc3c(NC(=O)COCCOCCNC(=O)[C@]4(Cc5cccc(Nc6nccs6)n5)CC[C@@H](Oc5cccc(Cl)c5F)CC4)cccc3C2=O)C(=O)N1 (some centres unmarked) [UB-180572] | > 1 µM | > 1 µM | – |
| O=C1CCC(N2Cc3c(NC(=O)COCCOCCOCCNC(=O)[C@]4(Cc5cccc(Nc6nccs6)n5)CC[C@@H](Oc5cccc(Cl)c5F)CC4)cccc3C2=O)C(=O)N1 (some centres unmarked) [UB-180573] | > 1 µM | > 1 µM | – |
| O=C1CCC(N2Cc3c(NC(=O)CCCNC(=O)[C@]4(Cc5cccc(Nc6nccs6)n5)CC[C@@H](Oc5cccc(Cl)c5F)CC4)cccc3C2=O)C(=O)N1 (some centres unmarked) [UB-180574] | > 1 µM | > 1 µM | – |
| O=C1CCC(N2Cc3c(NC(=O)CCOCCOCCOCCOCCNC(=O)[C@]4(Cc5cccc(Nc6nccs6)n5)CC[C@@H](Oc5cccc(Cl)c5F)CC4)cccc3C2=O)C(=O)N1 (some centres unmarked) [UB-180575] | > 1 µM | 0.01 to 0.1 µM | – |
| O=C1CCC(N2Cc3c(NC(=O)COCCNC(=O)[C@]4(Cc5cccc(Nc6nccs6)n5)CC[C@@H](Oc5cccc(Cl)c5F)CC4)cccc3C2=O)C(=O)N1 (some centres unmarked) [UB-180577] | > 1 µM | > 1 µM | – |
| O=C1CCC(N2Cc3c(NC(=O)COCCOCCOCCOCCNC(=O)[C@]4(Cc5cccc(Nc6nccs6)n5)CC[C@@H](Oc5cccc(Cl)c5F)CC4)cccc3C2=O)C(=O)N1 (some centres unmarked) [UB-180582] | > 1 µM | 0.01 to 0.1 µM | – |
| O=C1CCC(N2Cc3c(NC(=O)COCCCCNC(=O)[C@]4(Cc5cccc(Nc6nccs6)n5)CC[C@@H](Oc5cccc(Cl)c5F)CC4)cccc3C2=O)C(=O)N1 (some centres unmarked) [UB-180586] | > 1 µM | > 1 µM | – |
| O=C1CCC(N2Cc3c(NC(=O)COCCCNC(=O)[C@]4(Cc5cccc(Nc6nccs6)n5)CC[C@@H](Oc5cccc(Cl)c5F)CC4)cccc3C2=O)C(=O)N1 (some centres unmarked) [UB-180588] | > 1 µM | > 1 µM | – |
| Cc1sc2c(c1C)C(c1ccc(Cl)cc1)=N[C@@H](CC(=O)NCCOCCOCCOCCNCCC(=O)Nc1cccc3c1CN(C1CCC(=O)NC1=O)C3=O)c1nnc(C)n1-2 (some centres unmarked) [UB-180635] | > 1 µM | – | – |
| Cc1sc2c(c1C)C(c1ccc(Cl)cc1)=N[C@@H](CC(=O)NCCOCCOCCOCCNCCCC(=O)Nc1cccc3c1CN(C1CCC(=O)NC1=O)C3=O)c1nnc(C)n1-2 (some centres unmarked) [UB-180648] | > 1 µM | – | – |
| Cc1ncsc1-c1ccc(CNC(=O)[C@@H]2C[C@@H](O)CN2C(=O)[C@@H](NC(=O)COCCNCCn2cc(COCCOCCOCCNC(=O)[C@]3(Cc4cccc(Nc5nccs5)n4)CC[C@@H](Oc4cccc(Cl)c4F)CC3)nn2)C(C)(C)C)cc1 [UB-180791] | – | > 1 µM | – |
| O=C1CCC(N2Cc3c(NC(=O)COCCNCCOCCOCCOCCNC(=O)c4ccc(Nc5ncc6c(n5)-c5ccc(Cl)cc5C(c5c(F)cccc5F)=NC6)cc4)cccc3C2=O)C(=O)N1 (centres unmarked) [UB-180792] | – | 0.1 to 1 µM | – |
